Calls of active or inactive are those of the source.
Key:
[1] = biological target: T1, RNA-binding protein pos-1 (Caenorhabditis elegans, UniProt G5EF15); test: disruptors of C. elegans POS-1 RNA interaction – biochemical, fluorescence polarization, dose response (AID 1964);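 further: purified POS-1 fused to maltose binding protein made in E. coli; potency of compounds blocking POS-1 binding to fluorescent RNA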
T1 sequence (G5EF15 whole entry): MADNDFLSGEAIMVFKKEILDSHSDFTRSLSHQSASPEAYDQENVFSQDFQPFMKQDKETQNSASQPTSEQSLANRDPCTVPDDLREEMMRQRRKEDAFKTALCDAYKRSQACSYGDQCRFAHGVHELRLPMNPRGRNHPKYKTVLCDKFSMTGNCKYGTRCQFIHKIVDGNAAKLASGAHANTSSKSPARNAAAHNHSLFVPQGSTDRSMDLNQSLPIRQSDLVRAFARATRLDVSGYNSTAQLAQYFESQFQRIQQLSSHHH

[2] = viability loss in HepG2 liver cells – cell-based, ATP luminescence, cherry-pick, set 6, cytotoxicity control, dose response (AID 1053125); type: functional
[3] = biological target: T2, Zinc finger protein mex-5 (Caenorhabditis elegans, UniProt Q9XUB2); test: potency of MEX-5 RNA-binding blockers – biochemical, C. elegans, fluorescence polarization, dose response (AID 1960)
T2 sequence (Q9XUB2 whole entry): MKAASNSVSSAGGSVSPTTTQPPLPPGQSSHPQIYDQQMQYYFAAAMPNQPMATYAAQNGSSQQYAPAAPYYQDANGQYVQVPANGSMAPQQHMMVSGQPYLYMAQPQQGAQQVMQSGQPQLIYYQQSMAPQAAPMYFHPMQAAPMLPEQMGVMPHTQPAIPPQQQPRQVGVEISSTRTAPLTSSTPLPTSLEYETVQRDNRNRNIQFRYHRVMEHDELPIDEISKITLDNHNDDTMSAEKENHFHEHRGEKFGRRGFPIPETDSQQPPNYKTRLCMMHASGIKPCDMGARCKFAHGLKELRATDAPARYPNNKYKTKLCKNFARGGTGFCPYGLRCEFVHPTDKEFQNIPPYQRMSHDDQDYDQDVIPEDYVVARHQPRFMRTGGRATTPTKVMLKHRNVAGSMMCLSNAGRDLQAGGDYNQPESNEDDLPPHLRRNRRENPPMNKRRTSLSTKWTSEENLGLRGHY

[4] = Late stage assay provider results from the probe development effort to identify inhibitors of the Plasmodium falciparum M18 Aspartyl Aminopeptidase (M18AAP): radiolabel-based cell-based dose response assay to identify compounds that inhibit P. falciparum growth in RBCs, Set 2..; type: functional
[5] = Late stage assay provider results from the probe development effort to identify selective inhibitors of heat shock protein 90 (HSP90): Absorbance-based cell proliferation assay in MCF7 cells.; type: functional
[6] = Late stage assay provider results from the probe development effort to identify selective inhibitors of heat shock protein 90 (HSP90): Absorbance-based cell proliferation assay in SKBR3 cells.; type: functional; conditions: SK-BR-3
[7] = biological target: fMet-Leu-Phe receptor (Homo sapiens, UniProt P21462); test: formyl peptide receptor binders – dose response (AID 519); type: functional
[8] = biological target: Albumin (Bos taurus, UniProt P02769); test: Counterscreen for inhibitors of T-cell receptor (TCR)-CD3 interaction: Fluorescence-based biochemical high throughput dose response assay to identify inhibitors of T-cell receptor (TCR)-CD3 interaction using a TAMRA-labeled BSA probe.; type: functional
[9] = biological target: T3, Caspase-6 (Homo sapiens, UniProt P55212); test: inhibition of CASP6 peptide cleavage – biochemical, VEID-R110 fluorescence, dry powder retest, dose response (AID 743332)
T3 sequence (P55212 whole entry): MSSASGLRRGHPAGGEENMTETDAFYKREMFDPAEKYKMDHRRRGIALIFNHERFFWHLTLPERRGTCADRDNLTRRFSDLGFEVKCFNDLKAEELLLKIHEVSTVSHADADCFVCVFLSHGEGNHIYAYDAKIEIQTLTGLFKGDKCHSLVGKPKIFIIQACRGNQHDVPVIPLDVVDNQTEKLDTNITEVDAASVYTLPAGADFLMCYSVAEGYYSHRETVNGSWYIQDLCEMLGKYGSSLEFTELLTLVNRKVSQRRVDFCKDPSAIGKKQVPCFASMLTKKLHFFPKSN

[10] = biological target: Fructose-bisphosphate aldolase (Mycobacterium tuberculosis, UniProt P9WQA3); test: Fluorescence-based biochemical high throughput dose response assay for inhibitors of the fructose-bisphosphate aldolase (FBA) of M. tuberculosis.; type: functional
[11] = biological target: 1-phosphatidylinositol 4,5-bisphosphate phosphodiesterase beta-3 (Homo sapiens, UniProt Q01970); test: Fluorescence-based biochemical high throughput dose response assay to identify inhibitors of phospholipase C isozymes (PLC-B3).
[12] = biological target: 1-phosphatidylinositol 4,5-bisphosphate phosphodiesterase gamma-1 (Homo sapiens, UniProt P19174); test: Counterscreen for inhibitors of phospholipase C isozymes (PLC-B3): Fluorescence-based biochemical high throughput dose response assay to identify inhibitors of phospholipase C isozymes (PLC-gamma1).
[13] = biological target: Oxysterols receptor LXR-beta (Homo sapiens, UniProt P55055); type: functional, cell-based;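 further: agonist activity at LXR measured by a cell-based luminescence readout across a dose range, run as a counterscreen for daf-12 agonists; HEK293 cells with Gal4-LXR fusion and GAL4-driven luciferase reporter; potency for activation of Gal4-LXR reporter so compounds are agonists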
Sequence of Oxysterols receptor LXR-beta (P55055 whole entry, the tested form may be a part): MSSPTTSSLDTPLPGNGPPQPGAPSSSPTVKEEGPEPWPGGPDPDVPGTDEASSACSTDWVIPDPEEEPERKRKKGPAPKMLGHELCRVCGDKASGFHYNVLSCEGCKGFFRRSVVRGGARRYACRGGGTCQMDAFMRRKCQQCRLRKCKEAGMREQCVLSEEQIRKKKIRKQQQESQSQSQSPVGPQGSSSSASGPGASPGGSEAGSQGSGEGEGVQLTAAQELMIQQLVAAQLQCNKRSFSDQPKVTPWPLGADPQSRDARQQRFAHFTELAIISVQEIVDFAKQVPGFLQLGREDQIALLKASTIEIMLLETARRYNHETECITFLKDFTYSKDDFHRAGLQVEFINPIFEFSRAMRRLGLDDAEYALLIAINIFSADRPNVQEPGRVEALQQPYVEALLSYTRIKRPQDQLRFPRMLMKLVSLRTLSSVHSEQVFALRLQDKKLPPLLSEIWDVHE

Sequence of Fructose-bisphosphate aldolase (P9WQA3 whole entry): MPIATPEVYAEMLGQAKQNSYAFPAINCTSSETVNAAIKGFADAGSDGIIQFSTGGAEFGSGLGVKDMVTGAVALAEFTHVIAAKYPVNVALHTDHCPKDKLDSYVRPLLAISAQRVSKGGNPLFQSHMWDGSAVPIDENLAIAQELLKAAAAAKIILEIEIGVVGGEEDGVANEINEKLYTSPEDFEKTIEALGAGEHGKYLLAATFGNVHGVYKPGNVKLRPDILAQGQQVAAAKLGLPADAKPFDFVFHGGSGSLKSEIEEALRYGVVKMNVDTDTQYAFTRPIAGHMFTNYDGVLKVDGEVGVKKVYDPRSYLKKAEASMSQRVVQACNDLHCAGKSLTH
Sequence of 1-phosphatidylinositol 4,5-bisphosphate phosphodiesterase gamma-1 (P19174 whole entry, the tested form may be a part): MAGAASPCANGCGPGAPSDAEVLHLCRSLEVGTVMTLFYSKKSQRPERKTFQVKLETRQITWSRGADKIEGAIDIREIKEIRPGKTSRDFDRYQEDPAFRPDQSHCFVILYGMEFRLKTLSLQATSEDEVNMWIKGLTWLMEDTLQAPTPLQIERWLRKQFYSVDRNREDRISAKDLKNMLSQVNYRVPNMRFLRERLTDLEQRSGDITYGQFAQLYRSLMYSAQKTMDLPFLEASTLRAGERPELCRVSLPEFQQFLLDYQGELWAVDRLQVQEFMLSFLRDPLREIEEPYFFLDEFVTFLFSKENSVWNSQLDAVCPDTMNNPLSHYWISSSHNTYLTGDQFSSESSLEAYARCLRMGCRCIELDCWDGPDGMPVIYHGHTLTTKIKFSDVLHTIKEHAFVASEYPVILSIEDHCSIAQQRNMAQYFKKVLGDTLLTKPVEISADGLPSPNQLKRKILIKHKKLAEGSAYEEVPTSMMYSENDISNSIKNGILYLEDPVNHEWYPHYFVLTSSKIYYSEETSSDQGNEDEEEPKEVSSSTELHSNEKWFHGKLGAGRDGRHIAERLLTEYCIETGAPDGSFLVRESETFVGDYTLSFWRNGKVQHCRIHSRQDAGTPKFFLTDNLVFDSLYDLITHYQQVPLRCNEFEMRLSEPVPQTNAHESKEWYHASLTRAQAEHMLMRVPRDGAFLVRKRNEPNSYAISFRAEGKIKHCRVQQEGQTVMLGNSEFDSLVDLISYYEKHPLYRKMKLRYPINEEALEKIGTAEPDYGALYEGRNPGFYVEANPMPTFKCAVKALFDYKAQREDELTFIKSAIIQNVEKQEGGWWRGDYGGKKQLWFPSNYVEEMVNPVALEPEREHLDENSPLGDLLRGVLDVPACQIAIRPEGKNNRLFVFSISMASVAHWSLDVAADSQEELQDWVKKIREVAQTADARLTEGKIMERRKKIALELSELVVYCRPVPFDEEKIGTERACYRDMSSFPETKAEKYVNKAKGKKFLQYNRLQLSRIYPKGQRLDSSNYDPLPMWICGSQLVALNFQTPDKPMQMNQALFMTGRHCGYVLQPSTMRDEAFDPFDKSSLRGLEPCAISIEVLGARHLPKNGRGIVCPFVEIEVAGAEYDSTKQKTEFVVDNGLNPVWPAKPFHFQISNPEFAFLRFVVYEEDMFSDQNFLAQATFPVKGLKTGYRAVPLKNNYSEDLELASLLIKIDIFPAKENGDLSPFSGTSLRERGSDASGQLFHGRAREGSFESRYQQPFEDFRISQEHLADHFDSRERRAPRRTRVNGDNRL
Sequence of fMet-Leu-Phe receptor (P21462 whole entry): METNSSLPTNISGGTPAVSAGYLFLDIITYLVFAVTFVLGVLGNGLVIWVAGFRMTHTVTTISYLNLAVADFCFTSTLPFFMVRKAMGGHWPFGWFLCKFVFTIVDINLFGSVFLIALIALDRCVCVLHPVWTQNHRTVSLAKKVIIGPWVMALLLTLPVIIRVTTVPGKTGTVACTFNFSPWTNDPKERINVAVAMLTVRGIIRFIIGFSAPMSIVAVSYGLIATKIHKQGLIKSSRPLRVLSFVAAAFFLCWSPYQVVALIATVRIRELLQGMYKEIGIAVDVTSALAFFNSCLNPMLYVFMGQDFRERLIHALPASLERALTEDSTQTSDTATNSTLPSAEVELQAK
Sequence of Albumin (P02769 whole entry): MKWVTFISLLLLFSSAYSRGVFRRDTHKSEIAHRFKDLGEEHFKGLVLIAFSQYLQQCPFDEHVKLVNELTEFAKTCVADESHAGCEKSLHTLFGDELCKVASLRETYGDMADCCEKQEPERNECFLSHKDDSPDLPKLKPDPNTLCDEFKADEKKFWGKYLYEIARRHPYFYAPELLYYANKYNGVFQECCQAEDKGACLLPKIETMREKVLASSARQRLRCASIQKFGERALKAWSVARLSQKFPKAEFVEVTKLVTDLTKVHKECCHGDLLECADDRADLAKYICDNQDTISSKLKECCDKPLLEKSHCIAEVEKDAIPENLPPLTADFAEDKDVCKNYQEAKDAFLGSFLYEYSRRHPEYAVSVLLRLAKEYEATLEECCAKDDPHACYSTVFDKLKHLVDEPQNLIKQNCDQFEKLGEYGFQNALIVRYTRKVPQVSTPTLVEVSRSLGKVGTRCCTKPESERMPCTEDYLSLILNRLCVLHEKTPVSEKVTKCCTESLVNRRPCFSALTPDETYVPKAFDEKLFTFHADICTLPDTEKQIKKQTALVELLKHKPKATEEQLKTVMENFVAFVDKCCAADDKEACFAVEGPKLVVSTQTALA
Sequence of 1-phosphatidylinositol 4,5-bisphosphate phosphodiesterase beta-3 (Q01970 whole entry): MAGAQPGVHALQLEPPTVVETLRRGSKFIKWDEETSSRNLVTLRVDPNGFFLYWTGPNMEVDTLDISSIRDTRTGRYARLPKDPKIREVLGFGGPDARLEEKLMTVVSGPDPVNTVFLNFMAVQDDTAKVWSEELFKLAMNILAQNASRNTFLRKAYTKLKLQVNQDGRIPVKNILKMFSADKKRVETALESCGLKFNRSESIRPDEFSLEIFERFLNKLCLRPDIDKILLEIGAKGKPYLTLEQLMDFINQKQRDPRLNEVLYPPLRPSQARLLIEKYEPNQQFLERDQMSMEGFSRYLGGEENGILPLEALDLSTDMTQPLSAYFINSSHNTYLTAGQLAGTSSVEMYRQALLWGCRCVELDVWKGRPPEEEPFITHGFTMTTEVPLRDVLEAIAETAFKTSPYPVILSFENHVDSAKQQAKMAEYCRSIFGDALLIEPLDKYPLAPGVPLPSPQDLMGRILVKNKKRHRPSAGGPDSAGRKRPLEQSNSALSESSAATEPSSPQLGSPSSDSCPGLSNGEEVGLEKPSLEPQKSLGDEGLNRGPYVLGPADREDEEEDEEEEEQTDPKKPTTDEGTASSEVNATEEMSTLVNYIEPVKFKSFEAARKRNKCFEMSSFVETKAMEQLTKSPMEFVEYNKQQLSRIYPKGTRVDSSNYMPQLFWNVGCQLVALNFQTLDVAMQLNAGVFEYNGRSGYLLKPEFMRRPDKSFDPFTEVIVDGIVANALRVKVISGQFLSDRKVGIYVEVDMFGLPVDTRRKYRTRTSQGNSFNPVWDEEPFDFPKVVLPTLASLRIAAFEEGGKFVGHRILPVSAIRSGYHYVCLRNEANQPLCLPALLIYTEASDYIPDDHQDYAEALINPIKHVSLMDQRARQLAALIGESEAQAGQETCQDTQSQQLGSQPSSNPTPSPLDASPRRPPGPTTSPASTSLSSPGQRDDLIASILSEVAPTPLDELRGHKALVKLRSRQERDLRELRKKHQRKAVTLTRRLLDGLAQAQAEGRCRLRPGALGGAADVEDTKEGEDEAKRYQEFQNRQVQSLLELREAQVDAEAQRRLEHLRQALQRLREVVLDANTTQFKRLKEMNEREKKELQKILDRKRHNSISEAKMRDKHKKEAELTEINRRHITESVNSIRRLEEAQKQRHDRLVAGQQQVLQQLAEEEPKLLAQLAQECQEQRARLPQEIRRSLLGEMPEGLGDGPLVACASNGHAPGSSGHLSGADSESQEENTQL

N#CC1=C(N)OC2=C(C(=O)CCC2)C1c1cc2c(cc1Br)OCO2 (stereo not drawn)
EC50 [1]: > 300 µM (not active) | AC50 [2]: > 52 µM (inactive) | EC50 [3]: > 300 µM (not active)

Cc1cccc2c(NCCc3ccc(O)c(O)c3)ccnc12
IC50 [4]: 4.7 µM (active)

N#Cc1cc2ccc(OCCCCC(=O)O)cc2oc1=O
IC50 [5]: > 100 µM (inactive) | IC50 [6]: > 100 µM (inactive)

COc1cc(C2C(C(=O)c3ccco3)=C(O)C(=O)N2CCc2ccccc2)ccc1O (stereo not drawn)
Ki [7]: > 66.7 µM (inactive)

CC(C)(C)c1ccc(C(=O)NCC(=O)NNC(=O)c2ccccc2O)cc1
IC50 [8]: > 94.1 µM (inactive)

N#Cc1ccc(C(=O)N2CCN(S(=O)(=O)c3ccccc3)CC2)cc1
AC50 [9]: > 70 µM (inactive)

CCOC(=O)N1CCc2cc(OC)c(OC)c3c2c1cc1cc(OC)c(OC)cc13
IC50 [10]: 2.7 µM (active)

ONC(=Nc1ccc(Cl)cc1)c1ccccc1
IC50 [11]: > 122 µM (inactive) | IC50 [12]: > 122 µM (inactive)

Cn1c(NC(=O)CCC2CCCCC2)cc(=O)n(C)c1=O
EC50 [13]: > 67.5 µM (inactive)

Source: ChEMBL document CHEMBL1201862, “PubChem BioAssay data set” (2004)
